# Measured values taken from US10604535B2, “Compounds, compositions and methods” (Denali Therapeutics Inc., priority 2016, dated 2020).
# Target: GST-hRIPK1 (8-327) (Homo sapiens (Human), UniProt Q13546)
# Assay: Fluorescent Polarization Binding (FP Binding) assay
# Sequence of GST-hRIPK1 (8-327) (Q13546 8-327): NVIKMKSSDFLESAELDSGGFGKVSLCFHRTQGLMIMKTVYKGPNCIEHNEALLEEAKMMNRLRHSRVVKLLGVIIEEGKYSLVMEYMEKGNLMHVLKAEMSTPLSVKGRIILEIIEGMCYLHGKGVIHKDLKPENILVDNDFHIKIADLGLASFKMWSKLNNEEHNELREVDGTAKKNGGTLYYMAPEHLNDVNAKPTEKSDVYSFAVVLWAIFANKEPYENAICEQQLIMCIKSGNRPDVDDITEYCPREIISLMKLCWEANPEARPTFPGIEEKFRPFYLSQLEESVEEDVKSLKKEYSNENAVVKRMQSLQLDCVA
row,Compound,IC50
1,"CN1C(=O)[C@@H](NC(=O)[C@@H]2C[C@H]2Cc2ccccc2)COc2ccccc21 (single isomer, unassigned) [Example 50A]",0.0001 to 1 µM
2,"CN1C(=O)[C@@H](NC(=O)[C@H]2C[C@@H]2Cc2ccccc2)COc2ccccc21 (single isomer, unassigned) [Example 50B]",1 to 10 µM
3,"O=C(N[C@H]1COc2cccnc2NC1=O)c1nnc(C2CCc3ccccc32)[nH]1 (single isomer, unassigned) [Example 102A]",1 to 10 µM
4,"O=C(N[C@H]1COc2cccnc2NC1=O)c1nnc(C2CCc3ccccc32)[nH]1 (single isomer, unassigned) [Example 102B]",0.0001 to 1 µM
5,"CN1C(=O)C(NC(=O)c2nnc(Cc3ccccc3)[nH]2)[C@@H]2C[C@@H]2c2ccccc21 (stereo in doubt) [Example 46B, 5-benzyl-N-((2S)-4-methyl-3-oxo-1,1a,2,3,4,8b-hexahydrobenzo[b]cyclopropa[d]azepin-2-yl)-4H-1,2,4-triazole-3-carboxamide]",> 3 µM
6,"O=C(NC1COc2cccnc2-n2ccnc21)c1nn(Cc2ccccc2)cc1F (stereo in doubt) [Example 154A, (R)-1-benzyl-N-(6,7-dihydroimidazo[1,2-d]pyrido[3,2-b][1,4]oxazepin-7-yl)-4-fluoro-1H-pyrazole-3-carboxamide]",> 3 µM
7,"CN1C(=O)[C@@H](NC(=O)c2cc3n(n2)CC[C@@H]3c2ccccc2)COc2ccccc21 [Example 13, (R)—N—((S)-5-methyl-4-oxo-2,3,4,5-tetrahydrobenzo[b][1,4]oxazepin-3-yl)-4-phenyl-5,6-dihydro-4H-pyrrolo[1,2-b]pyrazole-2-carboxamide]",0.0001 to 1 µM
8,"CN1C(=O)[C@@H](NC(=O)c2cc(CC(F)(F)F)on2)COc2ccccc21 [Example 14, (S)—N-(5-methyl-4-oxo-2,3,4,5-tetrahydrobenzo[b][1,4]oxazepin-3-yl)-5-(2,2,2-trifluoroethyl)isoxazole-3-carboxamide]",0.0001 to 1 µM
9,"CN1C(=O)[C@@H](NC(=O)C2CN(Cc3ccccc3)C2)COc2ccccc21 [Example 33, (S)-1-benzyl-N-(5-methyl-4-oxo-2,3,4,5-tetrahydrobenzo[b][1,4]oxazepin-3-yl) azetidine-3-carboxamide]",> 10 µM
10,"Cc1nc2c(s1)CC[C@@H](NC(=O)c1nnc(Cc3ccccc3)[nH]1)C(=O)N2C [Example 38B, (R)-5-benzyl-N-(2,4-dimethyl-5-oxo-5,6,7,8-tetrahydro-4H-thiazolo[4,5-b]azepin-6-yl)-4H-1,2,4-triazole-3-carboxamide]",> 3 µM
11,"CN1C(=O)[C@@H](NC(=O)C2CC(Cc3ccccc3)C2)COc2ccccc21 (stereo partly drawn) [Example 43, 3-benzyl-N—((S)-5-methyl-4-oxo-2,3,4,5-tetrahydrobenzo[b][1,4]oxazepin-3-yl)cyclobutane-1-carboxamide]",1 to 10 µM
12,"CN1C(=O)[C@@H](NC(=O)c2ncc(S(=O)(=O)c3ccccc3)s2)COc2ccccc21 [Example 49, (S)—N-(5-methyl-4-oxo-2,3,4,5-tetrahydrobenzo[b][1,4]oxazepin-3-yl)-5-(phenylsulfonyl)thiazole-2-carboxamide]",1 to 10 µM
13,"C[C@@H]1Oc2cccnc2N(C)C(=O)[C@H]1NC(=O)c1nn(Cc2ccccc2)cc1F [Example 93, 1-benzyl-N-((2S,3S)-2,5-dimethyl-4-oxo-2,3,4,5-tetrahydropyrido[3,2-b][1,4]oxazepin-3-yl)-4-fluoro-1H-pyrazole-3-carboxamide]",0.0001 to 1 µM
14,"C[C@@H]1Oc2cccnc2N(C)C(=O)[C@H]1NC(=O)c1nnc(Cc2ccccc2)[nH]1 [Example 95, 5-benzyl-N-((2S,3S)-2,5-dimethyl-4-oxo-2,3,4,5-tetrahydropyrido[3,2-b][1,4]oxazepin-3-yl)-4H-1,2,4-triazole-3-carboxamide]",> 3 µM
15,"O=C(N[C@@H]1CC2(CC2)c2cccnc2NC1=O)c1nnc(Cc2ccccc2)[nH]1 [Example 98A, (R)-5-benzyl-N-(8′-oxo-6′,7′,8′,9′-tetrahydrospiro[cyclopropane-1,5′-pyrido[2,3-b]azepin]-7′-yl)-4H-1,2,4-triazole-3-carboxamide]",> 3 µM
16,"O=C(N[C@H]1CC2(CC2)c2cccnc2NC1=O)c1nnc(Cc2ccccc2)[nH]1 [Example 98B, (S)-5-benzyl-N-(8′-oxo-6′,7′,8′,9′-tetrahydrospiro[cyclopropane-1,5′-pyrido[2,3-b]azepin]-7′-yl)-4H-1,2,4-triazole-3-carboxamide]",0.0001 to 1 µM
17,"CN1C(=O)[C@H](NC(=O)c2cc(Oc3ccccc3F)ccn2)[C@@H]2C[C@@H]2c2cccnc21 [Example 100B, 4-(2-fluorophenoxy)-N-((1aR,2R,8bS)-4-methyl-3-oxo-1,1a,2,3,4,8b-hexahydrocyclopropa[d]pyrido[2,3-b]azepin-2-yl)picolinamide]",0.0001 to 1 µM
18,"CN1C(=O)[C@H](NC(=O)c2nnc(Cc3ccccc3)[nH]2)CCc2c1cnn2C [Example 101A, (R)-5-benzyl-N-(1,4-dimethyl-5-oxo-1,4,5,6,7,8-hexahydropyrazolo[4,3-b]azepin-6-yl)-4H-1,2,4-triazole-3-carboxamide]",> 3 µM
19,"O=C(N[C@@H]1CC2(CC2)c2cc(F)cc(F)c2NC1=O)c1nnc(Cc2ccccc2)[nH]1 [Example 103A, (R)-5-benzyl-N-(7,9-difluoro-2-oxo-1,2,3,4-tetrahydrospiro[benzo[b]azepine-5,1′-cyclopropan]-3-yl)-4H-1,2,4-triazole-3-carboxamide]",> 3 µM
20,"Cn1cc2c(n1)CC[C@@H](NC(=O)c1nnc(Cc3ccccc3)[nH]1)C(=O)N2 [Example 104A, (R)-5-benzyl-N-(2-methyl-5-oxo-2,4,5,6,7,8-hexahydropyrazolo[4,3-b]azepin-6-yl)-4H-1,2,4-triazole-3-carboxamide]",> 3 µM
21,"Cn1cc2c(n1)CC[C@H](NC(=O)c1nnc(Cc3ccccc3)[nH]1)C(=O)N2 [Example 104B, (S)-5-benzyl-N-(2-methyl-5-oxo-2,4,5,6,7,8-hexahydropyrazolo[4,3-b]azepin-6-yl)-4H-1,2,4-triazole-3-carboxamide]",0.0001 to 1 µM
22,"CN1C(=O)[C@H](NC(=O)c2nnc(Cc3ccccc3)[nH]2)CCc2nn(C)cc21 [Example 105B, (R)-5-benzyl-N-(2,4-dimethyl-5-oxo-2,4,5,6,7,8-hexahydropyrazolo[4,3-b]azepin-6-yl)-4H-1,2,4-triazole-3-carboxamide]",> 3 µM
23,"CN1C(=O)[C@@H](NC(=O)c2nnc(C3(c4ccccc4)CC3)[nH]2)COc2cccnc21 [Example 106, (S)—N-(5-methyl-4-oxo-2,3,4,5-tetrahydropyrido[3,2-b][1,4]oxazepin-3-yl)-5-(1-phenylcyclopropyl)-4H-1,2,4-triazole-3-carboxamide]",0.0001 to 1 µM
24,"CN1C(=O)[C@@H](NC(=O)c2cnc(Cc3ccccc3)[nH]2)COc2cccnc21 [Example 108, (S)-2-benzyl-N-(5-methyl-4-oxo-2,3,4,5-tetrahydropyrido[3,2-b][1,4]oxazepin-3-yl)-1H-imidazole-5-carboxamide]",0.0001 to 1 µM
25,"CN1C(=O)[C@H](NC(=O)c2nn(Cc3ccccc3)cc2F)CCc2nn(C)cc21 [Example 109B, (R)-1-benzyl-N-(2,4-dimethyl-5-oxo-2,4,5,6,7,8-hexahydropyrazolo[4,3-b]azepin-6-yl)-4-fluoro-1H-pyrazole-3-carboxamide]",> 3 µM
